The values below come from patent EP2465581B1, “Non-therapeutic use of a composition for promoting hair growth” (Energenesis Biomedical Co., Ltd., priority 2010, dated 2012).

In this assay the test system is human dermal papilla cells. The assay can be described thus: Human dermal papilla cell proliferation test. The class given is cell-based. Particulars: 0.002% in culture media; cell count at 12-60 hour; FIG. 1; result in words. The procedure:
The promotion of cell proliferation by adenine was evaluated using human dermal papilla cells, compared with adenosine, and minoxidil under the following conditions, the results are shown in FIG. 1. Determination of the proliferation of human dermal papilla cells in the culture media containing adenine, adenosine, and minoxidil. Supplements: 0.002% of adenine, adenosine, minoxidil. • (1) Prepare 0.002% adenine, adenosine, minoxidil containing testing media using the hair follicle dermal papilla cell media (cat. No. 611-500, Cell applications, Inc) . • (2) Seed the isolated human dermal papilla cells in 96-well culture plate with a density of 5,000 cells per well. Add 0.1 mL prepared culture media into individual well. • (3) At 12, 24, 36, 48 and 60 hour after cell seeding, visually count the total cell number using hemacytometer. • (4) Evaluate the result.

As to `Nc1ncnc2nc[nH]c12` [adenine], the “proliferation of human dermal papilla cells” value is “promotes the proliferation”.
